From the supplement of paper PMC11451515

Assays:
Conditions in all cases: 48 h
[1] = test system: P12-Ichikawa; test: AUC of viability dose-response curve (% viability x log10 dose units); higher = less sensitive
How it was run: (§1)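 In 1536-well plates, leukemia cells adapted to each medium (500 or 1000 cells/well) were exposed for 48 h at 37°C to library compounds in DMSO across 11 threefold doses, 47 μM down to 0.79 nM. Viability was read by CellTiter-Glo One luminescence and normalised per plate to DMSO and cell-free wells. A four-parameter log-logistic fit over log10 doses was integrated by trapezoidal rule. This yielded the area under the curve, with over-full-viability curves scaled and quality-control failures dropped.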

[2] = test system: NOMO1; test: as above
How it was run: as §1

[3] = test system: P12-Ichikawa; test: cell viability relative to DMSO control; higher = less cytotoxic
How it was run: (§2)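 Viability values are per-plate percentages of DMSO wells, with background from cell-free wells. Library compounds in DMSO were pin-dosed, in an 11-point threefold series from 47 μM to 0.79 nM, onto NOMO1 or SEM (500 cells/well) or P12-Ichikawa (1000 cells/well) leukemia cells in 1536-well plates (5 μl). Those cells had been adapted for at least four passages in each medium, and CellTiter-Glo One luminescence was read after 48 h at 37°C.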

[4] = test system: SEM cells; test: as above
How it was run: as §2

[5] = test system: NOMO1; test: as above
How it was run: as §2

CN1\N=C(N)/C2=C[N]([C@@H]3O[C@H](CO[P](O)(O)=O)[C@@H](O)[C@H]3O)C4=C2C1=NC=N4
AUC of viability dose-response curve
Conditions | HPLM + 10% dialyzed FBS | RPMI 5 mM glucose + 10% FBS | RPMI 5 mM glucose + 10% dialyzed FBS
[1] | 353 | 329 | 346
[2] | 341 | 393 | 347

cell viability [%]
Conditions | [3] | [4] | [5]
HPLM + 10% dialyzed FBS, 0.000781 µM | 112 | 77.9 | 108
HPLM + 10% dialyzed FBS, 0.00234 µM | 122 | 79.8 | 111
HPLM + 10% dialyzed FBS, 0.00702 µM | 110 | 42.7 | 124
HPLM + 10% dialyzed FBS, 0.0211 µM | 109 | 45.6 | 111
HPLM + 10% dialyzed FBS, 0.0632 µM | 111 | 38 | 104
HPLM + 10% dialyzed FBS, 0.19 µM | 96.1 | 25.8 | 88.6
HPLM + 10% dialyzed FBS, 0.569 µM | 77.9 | 13.2 | 74.6
HPLM + 10% dialyzed FBS, 1.71 µM | 53 | 8.14 | 67.7
HPLM + 10% dialyzed FBS, 5.12 µM | 54 | 4.15 | 59.5
HPLM + 10% dialyzed FBS, 15.4 µM | 43.2 | 2.69 | 30.1
HPLM + 10% dialyzed FBS, 46.1 µM | 37.9 | 2.9 | 16.2
RPMI 5 mM glucose + 10% FBS, 0.000781 µM | 114 | 107 | 109
RPMI 5 mM glucose + 10% FBS, 0.00234 µM | 110 | 109 | 107
RPMI 5 mM glucose + 10% FBS, 0.00702 µM | 105 | 63.8 | 112
RPMI 5 mM glucose + 10% FBS, 0.0211 µM | 95.1 | 65.2 | 99.9
RPMI 5 mM glucose + 10% FBS, 0.0632 µM | 93.9 | 50.3 | 99.2
RPMI 5 mM glucose + 10% FBS, 0.19 µM | 75.5 | 35.3 | 89.6
RPMI 5 mM glucose + 10% FBS, 0.569 µM | 72 | 16.7 | 93.7
RPMI 5 mM glucose + 10% FBS, 1.71 µM | 60.6 | 7.7 | 77.3
RPMI 5 mM glucose + 10% FBS, 5.12 µM | 52.7 | 6.79 | 84.1
RPMI 5 mM glucose + 10% FBS, 15.4 µM | 44.7 | 3.71 | 52.1
RPMI 5 mM glucose + 10% FBS, 46.1 µM | 41.4 | 3.23 | 50
RPMI 5 mM glucose + 10% dialyzed FBS, 0.000781 µM | 119 | 88.7 | 98.8
RPMI 5 mM glucose + 10% dialyzed FBS, 0.00234 µM | 114 | 76 | 114
RPMI 5 mM glucose + 10% dialyzed FBS, 0.00702 µM | 108 | 40 | 104
RPMI 5 mM glucose + 10% dialyzed FBS, 0.0211 µM | 113 | 38.9 | 105
RPMI 5 mM glucose + 10% dialyzed FBS, 0.0632 µM | 101 | 21.1 | 94.7
RPMI 5 mM glucose + 10% dialyzed FBS, 0.19 µM | 89.4 | 13.4 | 82.3
RPMI 5 mM glucose + 10% dialyzed FBS, 0.569 µM | 72.3 | 8.31 | 72.2
RPMI 5 mM glucose + 10% dialyzed FBS, 1.71 µM | 60.4 | 6.58 | 61.5
RPMI 5 mM glucose + 10% dialyzed FBS, 5.12 µM | 58.3 | 4.28 | 52.6
RPMI 5 mM glucose + 10% dialyzed FBS, 15.4 µM | 51 | 3.22 | 38
RPMI 5 mM glucose + 10% dialyzed FBS, 46.1 µM | 41.4 | 2.94 | 30.6

CCC\C1=C\C(=O)NC(=S)N1
AUC of viability dose-response curve
Conditions | HPLM + 10% dialyzed FBS | RPMI 5 mM glucose + 10% FBS | RPMI 5 mM glucose + 10% dialyzed FBS
[1] | 413 | 399 | 425
[2] | 407 | 421 | 452

cell viability [%]
Conditions | [3] | [4] | [5]
HPLM + 10% dialyzed FBS, 0.000781 µM | 99.4 | 71.1 | 81.7
HPLM + 10% dialyzed FBS, 0.00234 µM | 107 | 74.2 | 104
HPLM + 10% dialyzed FBS, 0.00702 µM | 109 | 98.3 | 112
HPLM + 10% dialyzed FBS, 0.0211 µM | 111 | 30.6 | 131
HPLM + 10% dialyzed FBS, 0.0632 µM | 120 | 119 | 113
HPLM + 10% dialyzed FBS, 0.19 µM | 120 | 91.1 | 126
HPLM + 10% dialyzed FBS, 0.569 µM | 94.2 | 7.27 | 121
HPLM + 10% dialyzed FBS, 1.71 µM | 110 | 27.9 | 133
HPLM + 10% dialyzed FBS, 5.12 µM | 87.6 | 79.2 | 72.3
HPLM + 10% dialyzed FBS, 15.4 µM | 38.4 | 51.5 | 35
HPLM + 10% dialyzed FBS, 46.1 µM | 8.65 | 75.9 | 25.8
RPMI 5 mM glucose + 10% FBS, 0.000781 µM | 107 | 63.3 | 101
RPMI 5 mM glucose + 10% FBS, 0.00234 µM | 112 | 91.9 | 113
RPMI 5 mM glucose + 10% FBS, 0.00702 µM | 110 | 102 | 123
RPMI 5 mM glucose + 10% FBS, 0.0211 µM | 118 | 28 | 123
RPMI 5 mM glucose + 10% FBS, 0.0632 µM | 119 | 121 | 114
RPMI 5 mM glucose + 10% FBS, 0.19 µM | 112 | 124 | 109
RPMI 5 mM glucose + 10% FBS, 0.569 µM | 85 | 6.88 | 116
RPMI 5 mM glucose + 10% FBS, 1.71 µM | 104 | 22.9 | 119
RPMI 5 mM glucose + 10% FBS, 5.12 µM | 78.9 | 93.1 | 111
RPMI 5 mM glucose + 10% FBS, 15.4 µM | 40.8 | 52.2 | 29.4
RPMI 5 mM glucose + 10% FBS, 46.1 µM | 7.58 | 65 | 20.9
RPMI 5 mM glucose + 10% dialyzed FBS, 0.000781 µM | 102 | 69.2 | 103
RPMI 5 mM glucose + 10% dialyzed FBS, 0.00234 µM | 105 | 74.8 | 122
RPMI 5 mM glucose + 10% dialyzed FBS, 0.00702 µM | 103 | 91.7 | 115
RPMI 5 mM glucose + 10% dialyzed FBS, 0.0211 µM | 115 | 54.4 | 118
RPMI 5 mM glucose + 10% dialyzed FBS, 0.0632 µM | 118 | 89.8 | 109
RPMI 5 mM glucose + 10% dialyzed FBS, 0.19 µM | 119 | 125 | 109
RPMI 5 mM glucose + 10% dialyzed FBS, 0.569 µM | 99.7 | 6.6 | 113
RPMI 5 mM glucose + 10% dialyzed FBS, 1.71 µM | 113 | 20.3 | 123
RPMI 5 mM glucose + 10% dialyzed FBS, 5.12 µM | 83.9 | 92.4 | 99.7
RPMI 5 mM glucose + 10% dialyzed FBS, 15.4 µM | 68.3 | 43.1 | 100
RPMI 5 mM glucose + 10% dialyzed FBS, 46.1 µM | 9.42 | 50.8 | 31.7
